Reference: ChEMBL document CHEMBL6177981, “Bardoxolone Derivatives as Novel Pseudo-Natural Necroptosis Inhibitors by Destabilizing HSP90 Client Proteins” (J Med Chem, 2025)
Activity calls are given as the source filed them. The rule behind the calls is not given here.

Key:
Mus musculus [1] = assay: (§1) Anti-necroptotic activity in TNFalpha/Z-VAD-FMK induced SIRS male C57BL/6J mouse model assessed as survival rate at 2.5 mg/kg, po pre-administered with compound via gavage for 2 hrs followed by […] of Z-VAD-FMK stimulation for 15 mins with subsequent TNF-alpha stimulation for 1 hrs and re-current […] of Z-VAD-FMK stimulation and measured after 8 hrs post SIRS induction relative to control; assay type: functional; conditions: time 10 hrs
L929 [2] = assay: Anti-necroptotic activity in TZ-induced mouse L929 cells assessed as increase in cell viability preincubated with Z-VAD-FMK followed by mTNFalpha stimulation for 4 hrs and measured after compound addition by CellTiter-Lumi luminescent cell viability assay; assay type: functional, cell-based
HT-29 [3] = assay: Downregulation of RIPK1 protein level in human HT-29 cells at 6 uM preincubated with MLN4924 for 2 hrs followed by compound addition and measured after 9 hrs by Western blot analysis; assay type: functional, cell-based
HT-29 [4] = assay: Downregulation of MLKL protein level in human HT-29 cells at 6 uM preincubated with MG132 for 2 hrs followed by compound addition and measured after 9 hrs by Western blot analysis; assay type: functional, cell-based
Mus musculus [5] = assay: as §1, with “reduction in IL-1beta in spleen” for “survival rate”, “5 to 10” for “2.5”, “by ELISA” for “relative to control”; assay type: functional, organism-based; conditions: dose 5-10 mg/kg, time 10.0 hrs
[6] = Tmax in Sprague-Dawley rat at 2 mg/kg, iv measured after 24 hrs by LC-MS/MS analysis; assay type: ADME, organism-based; conditions: in vivo
HeLa = assay: Downregulation of EGFR expression in RIPK3-deficient human HeLa cells at 0.75 to 6 uM incubated for 9 hrs by Western blot analysis; assay type: functional, cell-based; conditions: dose 0.75-6 µM
HT-29 [7] = assay: Downregulation of RIPK1 protein level in human HT-29 cell precipitate at 6 uM measured after 9 hrs by Western blot analysis; assay type: functional, cell-based
[8] = Acute toxicity in male C57BL/6J mouse assessed as effect on AST level at 2 g/Kg, IG measured after 72 hrs; conditions: in vivo, po, 2000 mg/kg
HT-29 [9] = assay: Downregulation of RIPK3 protein level in human HT-29 cells at 6 uM preincubated with Z-VAD-FMK for 2 hrs followed by compound addition and measured after 9 hrs by Western blot analysis; assay type: functional, cell-based
[10] = Acute toxicity in male C57BL/6J mouse assessed as inflammatory cell infiltration in lung at 2 g/Kg, IG measured after 72 hrs by H and E staining based analysis; assay type: tissue-based; conditions: in vivo, po, 2000 mg/kg
HT-29 [11] = assay: Downregulation of MLKL protein level in human HT-29 cells at 6 uM preincubated with Z-VAD-FMK for 2 hrs followed by compound addition and measured after 9 hrs by Western blot analysis; assay type: functional, cell-based
[12] = Acute toxicity in male C57BL/6J mouse assessed as effect on urea level at 2 g/Kg, IG measured after 72 hrs; conditions: in vivo, po, 2000 mg/kg
Mus musculus [13] = assay: as §1, with “reduction in IL-1beta in kidney” for “survival rate”, “5 to 10” for “2.5”, “by ELISA” for “relative to control”; assay type: functional, organism-based; conditions: dose 5-10 mg/kg, time 10.0 hrs
Mus musculus [14] = assay: as §1, with “reduction in IL6 in kidney” for “survival rate”, “5 to 10” for “2.5”, “by ELISA” for “relative to control”; assay type: functional, organism-based; conditions: dose 5-10 mg/kg, time 10.0 hrs
HT-29 [15] = assay: Downregulation of RIPK3 protein level in human HT-29 cells at 6 uM preincubated with NH4Cl for 2 hrs followed by compound addition and measured after 9 hrs by Western blot analysis; assay type: functional, cell-based
[16] = Acute toxicity in male C57BL/6J mouse assessed as inflammatory cell infiltration in brain at 2 g/Kg, IG measured after 72 hrs by H and E staining based analysis; assay type: tissue-based; conditions: in vivo, po, 2000 mg/kg
[17] = Acute toxicity in male C57BL/6J mouse assessed as hemorrhage in heart at 2 g/Kg, IG measured after 72 hrs by H and E staining based analysis; assay type: tissue-based; conditions: in vivo, po, 2000 mg/kg
[18] = AUC (0 to 24 hrs) in Sprague-Dawley rat at 10 mg/kg, IG measured after 24 hrs by LC-MS/MS analysis; assay type: ADME, organism-based; conditions: in vivo, po
HT-29 [19] = assay: Upregulation of HSP70 protein level in TSZ-induced human HT-29 cells at 10 uM preincubated with compound followed by Z-VAD-FMK, SM164 and TNFalpha stimulation and measured after 6 hrs by Western blot analysis; assay type: functional, cell-based
HT-29 [20] = assay: Downregulation of MLKL protein level in human HT-29 cell supernatant at 6 uM measured after 9 hrs by Western blot analysis; assay type: functional, cell-based
[21] = Acute toxicity in male C57BL/6J mouse assessed as hemorrhage in lung at 2 g/Kg, IG measured after 72 hrs by H and E staining based analysis; assay type: tissue-based; conditions: in vivo, po, 2000 mg/kg
[22] = target: T1, Receptor-interacting serine/threonine-protein kinase 1 (Homo sapiens) (UniProt Q13546); assay: Inhibition of RIPK1 phosphorylation at S166 residue in TSZ-induced human HT-29 cells at 10 uM preincubated with compound followed by Z-VAD-FMK, SM164 and TNFalpha stimulation and measured after 6 hrs by Western blot analysis; assay type: cell-based
T1 sequence (whole entry): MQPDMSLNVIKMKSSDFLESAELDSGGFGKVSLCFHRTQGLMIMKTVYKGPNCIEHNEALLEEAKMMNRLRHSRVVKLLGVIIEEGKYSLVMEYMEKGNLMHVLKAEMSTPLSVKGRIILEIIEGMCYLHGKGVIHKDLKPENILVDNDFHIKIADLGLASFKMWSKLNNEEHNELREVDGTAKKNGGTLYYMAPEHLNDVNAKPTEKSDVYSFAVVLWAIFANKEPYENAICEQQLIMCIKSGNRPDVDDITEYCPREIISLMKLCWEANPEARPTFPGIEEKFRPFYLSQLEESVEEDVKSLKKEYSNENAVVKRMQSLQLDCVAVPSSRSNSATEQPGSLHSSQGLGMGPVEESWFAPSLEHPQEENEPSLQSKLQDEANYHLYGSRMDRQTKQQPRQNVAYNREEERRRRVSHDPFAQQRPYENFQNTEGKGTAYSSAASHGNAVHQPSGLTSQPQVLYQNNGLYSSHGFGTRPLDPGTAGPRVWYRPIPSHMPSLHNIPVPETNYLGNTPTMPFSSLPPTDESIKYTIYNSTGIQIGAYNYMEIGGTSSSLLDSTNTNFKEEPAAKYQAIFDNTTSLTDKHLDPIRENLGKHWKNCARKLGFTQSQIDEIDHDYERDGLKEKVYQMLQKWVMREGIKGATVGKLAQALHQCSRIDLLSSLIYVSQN

RAW264.7 = assay: Anti-necroptotic activity in LZ-induced mouse RAW264.7 cells assessed as increase in cell viability at 5 to 10 uM preincubated with compound followed by LPS and Z-VAD-FMK stimulation and measured after 16 hrs by CellTiter-Lumi luminescent cell viability assay; assay type: functional, cell-based; conditions: dose 5-10 µM
L929 [23] = assay: Anti-necroptotic activity in TZ-induced mouse L929 cells assessed as increase in cell survival at 10 uM measured after 12 hrs by Live-cell super-resolution panoramic microscopic analysis; assay type: functional, cell-based
[24] = target: T1, Receptor-interacting serine/threonine-protein kinase 1 (Homo sapiens); assay: Inhibition of RIPK1 activation in TSZ-induced human HT-29 cells at 10 uM preincubated with compound followed by Z-VAD-FMK, SM164 and TNFalpha stimulation and measured after 6 hrs by Western blot analysis; assay type: cell-based

Cn1ccc(-c2ccc(NC(=O)[C@]34CCC(C)(C)C[C@H]3[C@H]3C(=O)C=C5[C@@]6(C)C=C(C#N)C(=O)C(C)(C)[C@@H]6CC[C@@]5(C)[C@]3(C)CC4)cc2)n1
survival at 2.5 mg/kg (Mus musculus [1]): 35%
EC50 (L929 [2]): 4.12 µM
Activity (HT-29 [3]): Active
Activity (HT-29 [4]): Active
Activity (Mus musculus [5]): Active
Tmax [6]: 4.98 min
Activity (HeLa): Active
Activity (HT-29 [7]): inactive
Activity [8]: Non-toxic
Activity (HT-29 [9]): Active
Activity [10]: Non-toxic
Activity (HT-29 [11]): Active
Activity [12]: Non-toxic
Activity (Mus musculus [13]): Active
Activity (Mus musculus [14]): Active
Activity (HT-29 [15]): Active
Activity [16]: Non-toxic
Activity [17]: Non-toxic
AUC(0-t) at 24 h [18]: 1080 ng·h/mL
Activity (HT-29 [19]): inactive
Activity (HT-29 [20]): Active
Activity [21]: Non-toxic
inhibition [22]: Active
Activity (RAW264.7): Active; Much Better Activity Observed
Activity (L929 [23]): Active
inhibition [24]: Active
